These results are taken from ChEMBL document CHEMBL1133112, “Structure-function relationships in aminoquinolines: effect of amino and chloro groups on quinoline-hematin complex formation, inhibition of beta-hematin formation, and antiplasmodial activity” (J Med Chem, 2000).

The subject of assay [1] is Plasmodium falciparum. The experiment in a line: In vitro antiplasmodial activity against Plasmodium falciparum D10. The format is functional, organism-based.
Assay [2] relates to Ferriprotoporphyrin IX.
Description: Association constant with ferriprotoporphyrin IX.
Assay [3] deals with Ferriprotoporphyrin IX. Description: LogK (Association constant) with ferriprotoporphyrin IX.
The target in assay [4] is T1, Histidine-rich protein PFHRP-II (Plasmodium falciparum) (UniProt P05227).
T1 sequence (whole entry): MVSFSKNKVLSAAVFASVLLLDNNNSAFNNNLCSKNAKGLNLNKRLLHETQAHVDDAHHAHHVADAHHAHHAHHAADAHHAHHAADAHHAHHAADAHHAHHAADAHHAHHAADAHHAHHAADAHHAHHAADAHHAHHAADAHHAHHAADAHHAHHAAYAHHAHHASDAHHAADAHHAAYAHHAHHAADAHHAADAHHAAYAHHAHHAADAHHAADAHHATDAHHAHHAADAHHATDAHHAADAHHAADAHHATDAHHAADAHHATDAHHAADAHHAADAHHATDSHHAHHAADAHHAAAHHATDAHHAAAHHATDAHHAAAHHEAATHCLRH

Molecules are shown by their SMILES. Calls of active or inactive are those of the source. No cut-off for these calls is given here. Bounds are passed on as bounds.

With `CCN(CC)CCNc1ccnc2cc(Cl)ccc12`, the IC50 (commonly the point on the concentration scale where inhibition reaches its midpoint) in assay [1] was 0.049 µM. The Log K in assay [2] is 5.81. Further, the Log K2 in assay [3] is 4.47.

As to `CC(=O)NCCNc1ccnc2ccccc12`, the IC50 in assay [1] is greater than 10 µM. In assay [2], the Log K was determined as 4.28. In addition, the NI result in assay [4] was “No inhibition”.

`CNc1ccnc2ccccc12` showed an IC50 in assay [1] greater than 10 µM. The compound further displayed a Log K in assay [2] of 4.38. Besides, in assay [4], the NI entry is “No inhibition”.

Turning to `CCN(CC)CCNc1ccnc2ccccc12`, half-maximal inhibition in assay [1] (IC50) required 0.799 µM. Further, the Log K in assay [2] turned out to be 4.75. The same compound displayed a Log K2 in assay [3] of 3.2. Besides, the NI entry in assay [4] is “No inhibition”.

Regarding `CN(C)CCNc1ccnc2cc(Cl)ccc12`, the IC50 in assay [1] worked out at 0.0809 µM. For the same compound, the Log K in assay [2] was 4.96.

`Nc1cccc2ncccc12` displayed an IC50 in assay [1] greater than 10 µM. For the same compound, the Log K in assay [2] was less than 2.5. Moreover, the NI entry in assay [4] is “No inhibition”.

As for `OCCNc1ccnc2cc(Cl)ccc12`, the IC50 in assay [1] amounted to 5.07 µM. The Log K in assay [2] came out at 4.66.

Compound `Nc1ccnc2ccccc12` [QUINOLIN-4-AMINE] gave an IC50 in assay [1] greater than 10 µM. Further, in assay [2], the Log K stood at 4.49. In assay [4], the NI entry was “No inhibition”.

For the compound `Nc1ccc2ncccc2c1`, the half-inhibitory concentration (IC50) in assay [1] is greater than 10 µM. In assay [2], this compound registered a Log K of less than 2.5. Moreover, the NI entry in assay [4] was “No inhibition”.

In assay [1], `Nc1ccnc2cc(Cl)ccc12` returned an IC50 of 3.8 µM. Further, in assay [2], the Log K amounted to 4.43.

Take `OCCNc1ccnc2ccccc12`: the 50% inhibitory concentration (IC50) in assay [1] was greater than 10 µM. Besides, the Log K in assay [2] is 4.18. Further, the NI result in assay [4] was “No inhibition”.

For the compound `NCCNc1ccnc2ccccc12`, in assay [1], it took 4.7 µM to reach half-maximal inhibition (IC50). The Log K in assay [2] came out at 4.59. Besides, the NI entry in assay [4] was “No inhibition”.

In the case of `NCCNc1ccnc2cc(Cl)ccc12`, in assay [1], half-maximal inhibition (IC50) required 0.092 µM. This compound also came in with a Log K in assay [2] of 4.93.

Regarding `c1ccc2ncccc2c1` [QUINOLINE], the IC50 in assay [1] was greater than 10 µM. Further, the Log K in assay [2] was less than 2.5. In addition, in assay [4], the NI entry was “inactive”.

`Clc1ccc2c(Cl)ccnc2c1` came in with an IC50 in assay [1] greater than 10 µM. Further, the Log K in assay [2] is less than 2.5. In assay [4], the NI entry is “No inhibition”.

Compound `Nc1cccc2cccnc12` [8-AMINOQUINOLINE] gave a half-maximal inhibitory concentration (IC50) in assay [1] greater than 10 µM. In addition, the Log K in assay [2] is less than 2.5. The NI result in assay [4] is “No inhibition”.

Regarding `NCCNc1ccc2ccccc2n1`, in assay [1], the IC50 was greater than 10 µM. Also, the Log K in assay [2] is 4.34. In assay [4], the NI entry was “No inhibition”.

Consider `CNc1ccc2ccccc2n1`, for which the concentration for half-maximal inhibition (IC50) in assay [1] is greater than 10 µM. In assay [2], this compound had a Log K of 4.26. Moreover, in assay [4], the NI entry was “inactive”.

Turning to `Nc1cnc2ccccc2c1`, the IC50 in assay [1] was greater than 10 µM. This compound also registered a Log K in assay [2] of less than 2.5. In assay [4], the NI result was “inactive”.

For the compound `CNc1ccnc2cc(Cl)ccc12`, in assay [1], 4 µM corresponded to half-maximal inhibition (IC50). Besides, the Log K in assay [2] was 4.48.
